These results are taken from patent US20210221774A1, “TREATMENT OF POST-TRAUMATIC SYNDROME DISORDER” (Aché Laboratórios Farmacêuticos S.A, priority 2017, published 2021).

For this test, the system named is c-fos expression in key brain regions involved in stress response. As to the kind of experiment: Single Prolonged Stress (SPS) model, count of c-fos positive neurons in brain regions. Type of test: in vivo. The note with it: mice, IA1-29 30 mg/kg p.o. given before SPS, locus ceruleus, amygdala, hypothalamus, bed nuclei stria terminalis (FIG. 1). The protocol: The quinazolinone of the invention was named IA1-29 and was tested in an in vivo model that mimics the activation that occurs in the brain after a prolonged stress stimulus.
The effects of the administration of IA1-29 at 30 mg/kg p.o. in brain activation were assessed in mice subjected to the Single Prolonged Stress (SPS) model. The SPS protocol is a well established model of PTSD that combines multiple stressors (physical restraint, forced swim, predator scent and ether anesthesia (Borghans & Homberg, 2015; Yamamoto et al., 2009)). The activation of specific brain regions was determined by counting the number of neurons expressing the c-fos protein, an immediate early gene product that can be used as a marker of cell activation in individual neurons. […] The count of c-fos positive neurons in some of these regions can be visualized in FIG. 1. The experiment comprised three different groups (n=10 per group): mice not subjected to the SPS protocol (Sham), mice subjected to the SPS model (SPS) and animals submitted to the SPS protocol but pre-treated with IA1-29 at 30 mg/kg (IA1-29+SPS). The brain regions exemplified in FIG. 1 are locus ceruleus (FIG. 1A), amygdala (FIG. 1B), hypothalamus (FIG. 1C) and bed nuclei stria terminalis (FIG. 1D). […]

`COc1ccccc1N1CCN(CCn2cnc3ccccc3c2=O)CC1` [IA1-29, 3-(2-(4-(2-methoxyphenyl)piperazine-1-yl)ethyl) quinazoline-4(3H)-one]: the “SPS-induced c-fos expression in key brain regions involved in stress response (count of c-fos positive neurons)” value is “suppressed”.
